Tests used:
[1] = test system: RGC-5 (rat ganglion cell); assay: Retinal nerve protection under oxygen-glucose deprivation (OGD), LDH assay; assay type: cell-based; settings: RGC-5, OGD 15 hours, compound 20 μM, DMSO control = 100%
Description: The following experiment was performed to evaluate the protective effect of the compounds of examples of the invention on the retinal nerve under oxygen-glucose deprivation condition.
The retinal ganglion cell line RGC-5 (rat ganglion cell) was cultured in DMEM (Dulbecco's modified Eagle's medium) supplemented with 10% FBS (fetal bovine serum) and 1% penicillin/streptomycin. The cells were distributed in a 96-well plate at the density of 8×10^3 cells/well, followed by culture in a 37° C., CO2 incubator for 12 hours. The cells were washed with PBS once and the medium was replaced with glucose free DMEM. The cells were treated with either DMSO (0.1%) alone (control) or with the compounds of examples (20 μM) shown in Table 3, followed by culture in an anaerobic incubator (10% H2, 5% CO2, 85% N2, 37° C., chamber (ThermoForma, USA)) for 15 hours to induce cell death.
The level of cell death was measured by LDH (lactate dehydrogenase, Roche) assay. The LDH assay is a method for measuring the activity of LDH released from the damaged cells into the culture medium. NAD^+ was reduced to NADH and H^+ by LDH, and the bond of tetrazolium salt INT ring was cleaved by diaphorase to form formazan. Absorbance of the formazan was measured at 490 nm by using Victor 3 (PerkinElmer). The absorbance reflects the amount of dead cells.
The level of the control LDH under oxygen-glucose deprivation condition was regarded as 100%, and the level of LDH in the cell group cultured in normal medium (10% FBS, DMEM) for the same time was regarded as 0%. Based on that, the levels of LDH of the cell groups treated with the compounds of the invention under oxygen-glucose deprivation condition were converted into the relative ratio of cell death. The compounds of examples of the invention were treated to wells, each compound for three wells, and then each experiment was performed in triplicate.

[2] = test system: RGC-5 (rat ganglion cell-5); assay: Retinal neuron protection under necroptosis inducing (TCZ; TNFα+cycloheximide+zVAD) condition, LDH assay; assay type: cell-based; settings: RGC-5, TCZ 15 hours, compound 20 μM, DMSO control = 100%
Description: The following experiment was performed to evaluate the retinal neuron protection effect of the compounds of the invention under necroptosis inducing condition.
The retinal ganglion cell line RGC-5 (rat ganglion cell-5) was cultured in DMEM (Dulbecco's modified Eagle's medium) supplemented with 10% FBS (fetal bovine serum) and 1% penicillin/streptomycin. The cells were distributed in a 96-well plate at the density of 8×10^3 cells/well, followed by culture in a 37° C., CO2 incubator for 12 hours. The medium supplemented with TNFα (10 ng/ml), cycloheximide (10 μg/ml), and zVAD (10 μM) (TCZ) was treated with DMSO (0.1%) alone (control) or with the compounds of the invention (20 μM), followed by additional culture in a 37° C., CO2 incubator for 15 hours to induce cell death.
The level of cell death was measured by LDH (lactate dehydrogenase, Roche) assay. The level of the control LDH under TCZ condition was regarded as 100%, and the level of LDH in the cell group cultured in normal medium (10% FBS, DMEM) for the same time was used for the measurement of the relative rate of cell death. The compounds of examples of the invention were treated to wells, each compound for three wells, and then each experiment was performed in triplicate.

[3] = molecular target: RIPK1 (receptor-interacting serine/threonine-protein kinase 1) (Homo sapiens (Human), UniProt Q13546); assay: RIPK1 inhibitory activity, autophosphorylation of immuno-precipitated RIPK1 with [32P]γ-ATP; assay type: biochemical; settings: for activity at 100 µM: compound 100 μM, remaining RIPK1 phosphorylation; for inhibition at 100 µM: Table 2, 100 μM
RIPK1 (receptor-interacting serine/threonine-protein kinase 1), sequence (Q13546 whole entry, species assumed): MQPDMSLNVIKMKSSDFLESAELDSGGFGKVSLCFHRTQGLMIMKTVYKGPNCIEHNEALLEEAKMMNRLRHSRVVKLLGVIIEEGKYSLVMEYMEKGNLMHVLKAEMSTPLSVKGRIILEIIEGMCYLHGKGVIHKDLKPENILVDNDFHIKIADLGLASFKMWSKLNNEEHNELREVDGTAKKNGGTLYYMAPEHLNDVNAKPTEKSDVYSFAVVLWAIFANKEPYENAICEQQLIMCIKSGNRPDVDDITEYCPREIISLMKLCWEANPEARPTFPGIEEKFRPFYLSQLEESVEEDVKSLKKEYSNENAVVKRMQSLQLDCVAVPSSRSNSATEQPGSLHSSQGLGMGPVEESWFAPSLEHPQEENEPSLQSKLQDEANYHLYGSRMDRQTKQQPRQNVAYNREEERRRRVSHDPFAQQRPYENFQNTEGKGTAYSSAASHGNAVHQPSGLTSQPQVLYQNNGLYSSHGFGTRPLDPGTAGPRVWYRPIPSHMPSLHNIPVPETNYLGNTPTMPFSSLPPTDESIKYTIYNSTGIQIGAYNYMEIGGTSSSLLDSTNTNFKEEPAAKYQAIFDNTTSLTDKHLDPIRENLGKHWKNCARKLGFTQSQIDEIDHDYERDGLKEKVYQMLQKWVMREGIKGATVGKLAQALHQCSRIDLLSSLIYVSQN
Description: The following experiment was performed to evaluate RIPK1 (receptor-interacting serine/threonine-protein kinase 1) inhibitory activity of the compounds of examples of the invention.
RIPK1 enzyme immuno-precipitated in HEK293 (Human Embryonic Kidney 293) cell lysate was used as kinase. The experiment was performed according to the method described in Cell. 12; 137(6):1112-23(2009). RIPK1 protein was over-expressed in HEK293 cell line, to which lysis buffer (50 mM Tris-Cl [pH 8.0], 150 mM NaCl, 1 mM EDTA, 1% NP-40, 0.4 mM phenylmethylsulfonyl fluoride (PMSF)) was added for cell lysis. Centrifugation was performed at 13,000 rpm for 10 minutes to separate the supernatant. RIPK1 monoclonal antibody (610459, BD Bioscience) and A/G agarose beads (sc-2003, Santa Cruz Biotechnology) were added thereto, followed by immuno-precipitation in a 4° C. rotator for 12 hours.
The immune complex was washed with lysis buffer twice and then washed with kinase assay buffer (20 mM HEPES [pH7.6], 2 mM DTT, 1 mM NaF, 1 mM Na3Vo4, 20 mM β-glycerophosphate, 20 mM PNPP, 20 mM MgCl2, 20 mM MnCl2, 1 mM Benzamidie, and 1 mM EDTA) lastly. Kinase assay buffer and the compound were added to the RIPK1 immuno-precipitate, followed by reaction in a 24° C. constant-temperature water bath for 15 minutes. Additional reaction was induced for 30 minutes at 30° C. after 100 μM of ATP and 10 μCi[^32P] γ-ATP were added thereto. The reaction mixture was washed with kinase assay buffer once, to which protein loading buffer was added, followed by heating at 100° C. for 3 minutes. The reaction mixture was then loaded on 8% SDS-PAGE gel. Radioactive image of the phosphorylated RIPK1 was detected with FLA-7000 (GE healthcare). The image Quant TL program was used for the quantification.

SMILES | activity at 100 µM [3] [%] | inhibition at 100 µM [3] [%] | Death of retinal nerve cell (%) [1] [%] | Death of retinal nerve cell (%) [2] [%]
O=C(c1cc2cc(Cl)ccc2[nH]1)N1CCOCC1 [Example 12, (5-chloro-1H-indole-2-yl)(morpholino)methanone] | 60 | – | 35.7 ± 0.1 | 50.5 ± 7.4
Cc1ccc2[nH]c(C(=O)N3CCOCC3)cc2c1 [Example 21, (5-methyl-1H-indole-2-yl)(morpholino)methanone] | 81 ± 17 | – | 64.7 ± 7.1 | 89.9 ± 19.4
Cc1ccc2cc(C(=O)N3CCOCC3)sc2c1C [Example 18, (6,7-dimethylbenzo[b]thiophene-2-yl)(morpholino)methanone] | 76.5 ± 12 | – | 37.0 ± 1.7 | 74.6 ± 8.2
O=C(c1cc2c(-c3ccc(F)cc3)cnc(Cl)c2s1)N1CCOCC1 [Example 5, (7-chloro-4-(4-fluorophenyl)thieno[2,3-c]pyridine-2-yl)(morpholino)methanone] | 85.1 ± 24.7 | – | 62.1 ± 3.7 | 57.6 ± 19.2
Cc1ccc2[nH]c(C(=O)N3CCOCC3)nc2c1 [Example 13, (5-methyl-1H-benzo[d]imidazole-2-yl)(morpholino)methanone] | 83.4 ± 16.1 | – | 69.6 ± 2.0 | 71.2 ± 7.0
O=C(c1cc2cccc(Br)c2s1)N1CCOCC1 [Example 29, (7-bromobenzo[b]thiophene-2-yl)(morpholino)methanone] | 82.5 ± 24.7 | – | 51.4 ± 10.9 | 78.4 ± 6.5
COc1ccc2[nH]c(C(=O)N3CCOCC3)nc2c1 [Example 24, (5-methoxy-1H-benzo[d]imidazole-2-yl)(morpholino)methanone] | 52 ± 17.1 | – | 76.4 ± 13.4 | 66.6 ± 9.9
COS(=O)c1ccc(-c2cccc3sc(C(=O)N4CCOCC4)cc23)cc1 (stereo not drawn) [Example 64, methyl 4-(2-(morpholine-4-carbonyl)benzo[b]thiophene-4-yl)benzene sulfinate] | 83.6 ± 12.7 | – | 63.0 ± 17.8 | –
O=C(c1cc2c(Br)cnc(Cl)c2s1)N1CCOCC1 [Example 1, (4-bromo-7-chlorothieno[2,3-c]pyridine-2-yl)(morpholino)methanone] | 52.5 ± 7.8 | – | – | 79.3 ± 3.2
O=C(O)C1COCCN1C(=O)c1cc2c(-c3ccc(F)cc3)cccc2s1 (stereo not drawn) [Example 8, 4-(4-(4-fluorophenyl)benzo[b]thiophene-2-carbonyl)morpholine-3-carboxylic acid] | 88.5 ± 16.3 | – | 52.3 ± 11.1 | –
O=C(c1cc2c(Br)cncc2s1)N1CCOCC1 [Example 3, (4-bromothieno[2,3-c]pyridine-2-yl)(morpholino)methanone] | 52 ± 2.8 | – | – | 79.6 ± 3.2
O=C(c1cc2c(-c3ccc(F)cc3)ccc(Cl)c2s1)N1CCOCC1 [Example 53, (7-chloro-4-(4-fluorophenyl)benzo[b]thiophene-2-yl)(morpholino)methanone] | 70 ± 4.2 | – | 59.9 ± 9.7 | –
O=C(c1cc2c(-c3ccc4[nH]ccc4c3)cccc2s1)N1CCOCC1 [Example 9, (4-(1H-indole-5-yl)benzo[b]thiophene-2-yl)(morpholino)methanone] | 76 ± 33.9 | – | 64.6 ± 9.5 | –
Nc1cccc(-c2cccc3sc(C(=O)N4CCOCC4)cc23)c1 [Example 42, (4-(3-aminophenyl)benzo[b]thiophene-2-yl)(morpholino)methanone] | 35.5 ± 3.9 | ≥ 50 | 57.2 ± 11.2 | –

The next lines start with results.

activity at 100 µM [3] [%] | inhibition at 100 µM [3] [%] | SMILES | Death of retinal nerve cell (%) [1] [%] | Death of retinal nerve cell (%) [2] [%]
67 | – | O=C(c1cc2cccc(-c3ccc(F)cc3)c2s1)N1CCOCC1 [Example 65, (7-(4-fluorophenyl)benzo[b]thiophene-2-yl)(morpholino)methanone] | 79.6 ± 5.5 | 77.8 ± 9.6
78.5 ± 30.4 | – | O=C(c1cc2c(Nc3ccc(F)cc3F)cccc2s1)N1CCOCC1 [Example 58, (4-(2,4-difluorophenylamino)benzo[b]thiophene-2-yl)(morpholino)methanone] | 89.4 ± 6.4 | –
11.5 ± 4.9 | – | Cl.O=C(c1cc2c(-c3ccc(F)nc3)cccc2s1)N1CCOCC1 [Example 66, (4-(6-fluoropyridine-3-yl)benzo[b]thiophene-2-yl)(morpholino)methanone hydrochloride] | 45.2 ± 10.5 | –
11 ± 5.7 | – | O=C(c1cc2c(-c3ccc(F)cc3)cccc2s1)N1CCOC1 [Example 46, (4-(4-fluorophenyl)benzo[b]thiophene-2-yl) (oxazolidine-3-yl)methanone] | 55.4 ± 12.8 | –
33.5 ± 12 | ≥ 50 | O=C(c1cc2c(Nc3ccc(F)cc3)cccc2s1)N1CCOCC1 [Example 68, (4-(4-fluorophenylamino)benzo[b]thiophene-2-yl)(morpholino)methanone] | 58.3 ± 11.9 | –
47.5 ± 2.1 | ≥ 50 | CSc1ccc(-c2cccc3sc(C(=O)N4CCOCC4)cc23)cc1 [Example 50, (4-(4-(methylthio)phenyl)benzo[b]thiophene-2-yl)(morpholino)methanone] | 57.2 ± 8.1 | –
21 ± 17 | ≥ 50 | O=C(c1cc2c(-c3ccc(O)cc3)cccc2s1)N1CCOCC1 [Example 44, (4-(4-hydroxyphenyl)benzo[b]thiophene-2-yl)(morpholino)methanone] | 81.1 ± 6.5 | –
22 ± 15.6 | ≥ 50 | O=C(c1cc2c(CCc3ccc(F)cc3)cccc2s1)N1CCOCC1 [Example 60, (4-(4-fluorophenethyl)benzo[b]thiophene-2-yl)(morpholino)methanone] | 89.8 ± 10.7 | –
49.5 ± 3.5 | ≥ 50 | O=C(c1cc2c(Cc3ccc(F)cc3)cccc2s1)N1CCOCC1 [Example 67, (4-(4-fluorobenzyl)benzo[b]thiophene-2-yl)(morpholino)methanone] | 59.3 ± 14.9 | –
22.5 ± 12 | ≥ 50 | O=C(c1cc2c(OCc3ccc(F)cc3)cccc2s1)N1CCOCC1 [Example 61, (4-(4-fluorobenzyloxy)benzo[b]thiophene-2-yl)(morpholino)methanone] | 53.5 ± 14.5 | –

Reference: patent US10501473B2, “Fused heterocyclic ring compounds and method of treating retinal disease using same” (THE INDUSTRY & ACADEMIC COOPERATION IN CHUNGNAM NATIONAL …, priority 2014, dated 2019)
